Data from patent US9358281B2, “Methods, agents and peptides for inducing an innate immune response in HIV vaccination” (New York University, priority 2009, dated 2016).

System: monocyte-derived dendritic cells (MDDC)
Format: cell-based, human
Details: added during the first 24 hours

Cc1nnc(C(=O)NC(C)(C)c2nc(C(=O)NCc3ccc(F)cc3)c(O)c(=O)n2C)o1 [RAL, Raltegravir]
effect on transduction efficiency: inhibited transduction efficiency

Cc1cn([C@H]2C[C@H](N=[N+]=[N-])[C@@H](CO)O2)c(=O)[nH]c1=O [AZT, Zidovudine]
effect on transduction efficiency: inhibited transduction efficiency
